Experimental findings from patent US9932314B2, “Pyrazole compounds and their use as T-type calcium channel blockers” (IDORSIA PHARMACEUTICALS LTD, priority 2015, dated 2018) are described below.

pIC50: −log10 of the molar value.

A word on the pIC50: it is −log10 of the IC50, conventionally taken in molar units.

The experiment has as its target T1, voltage-dependent T-type calcium channel subunit alpha-1G (Cav3.2) (Homo sapiens, UniProt O95180).
T1 construct: expressed in transfected cells; host or cells: HEK293
Kind of experiment: FLIPR calcium flux assay, HEK293 cells recombinantly expressing Cav3.2. It is filed as cell-based. The conditions noted are these: Cav3.2-channel, Fluo-4-AM, 3 min incubation, stimulation with 10 mM CaCl2. The method in brief:
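Calcium influx was triggered by adding CaCl2 to 10 mM final, 3 min after compounds in tetraethylammonium-based buffer, pH 7.2, reached Fluo-4-AM-loaded recombinant HEK293 cells. The integrated kinetic fluorescence signal per concentration gave concentration-response curves by non-linear sigmoidal regression.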
(Calcium flux is commonly read through the fluorescence of an indicator in the cells.)

T1 sequence (O95180 whole entry): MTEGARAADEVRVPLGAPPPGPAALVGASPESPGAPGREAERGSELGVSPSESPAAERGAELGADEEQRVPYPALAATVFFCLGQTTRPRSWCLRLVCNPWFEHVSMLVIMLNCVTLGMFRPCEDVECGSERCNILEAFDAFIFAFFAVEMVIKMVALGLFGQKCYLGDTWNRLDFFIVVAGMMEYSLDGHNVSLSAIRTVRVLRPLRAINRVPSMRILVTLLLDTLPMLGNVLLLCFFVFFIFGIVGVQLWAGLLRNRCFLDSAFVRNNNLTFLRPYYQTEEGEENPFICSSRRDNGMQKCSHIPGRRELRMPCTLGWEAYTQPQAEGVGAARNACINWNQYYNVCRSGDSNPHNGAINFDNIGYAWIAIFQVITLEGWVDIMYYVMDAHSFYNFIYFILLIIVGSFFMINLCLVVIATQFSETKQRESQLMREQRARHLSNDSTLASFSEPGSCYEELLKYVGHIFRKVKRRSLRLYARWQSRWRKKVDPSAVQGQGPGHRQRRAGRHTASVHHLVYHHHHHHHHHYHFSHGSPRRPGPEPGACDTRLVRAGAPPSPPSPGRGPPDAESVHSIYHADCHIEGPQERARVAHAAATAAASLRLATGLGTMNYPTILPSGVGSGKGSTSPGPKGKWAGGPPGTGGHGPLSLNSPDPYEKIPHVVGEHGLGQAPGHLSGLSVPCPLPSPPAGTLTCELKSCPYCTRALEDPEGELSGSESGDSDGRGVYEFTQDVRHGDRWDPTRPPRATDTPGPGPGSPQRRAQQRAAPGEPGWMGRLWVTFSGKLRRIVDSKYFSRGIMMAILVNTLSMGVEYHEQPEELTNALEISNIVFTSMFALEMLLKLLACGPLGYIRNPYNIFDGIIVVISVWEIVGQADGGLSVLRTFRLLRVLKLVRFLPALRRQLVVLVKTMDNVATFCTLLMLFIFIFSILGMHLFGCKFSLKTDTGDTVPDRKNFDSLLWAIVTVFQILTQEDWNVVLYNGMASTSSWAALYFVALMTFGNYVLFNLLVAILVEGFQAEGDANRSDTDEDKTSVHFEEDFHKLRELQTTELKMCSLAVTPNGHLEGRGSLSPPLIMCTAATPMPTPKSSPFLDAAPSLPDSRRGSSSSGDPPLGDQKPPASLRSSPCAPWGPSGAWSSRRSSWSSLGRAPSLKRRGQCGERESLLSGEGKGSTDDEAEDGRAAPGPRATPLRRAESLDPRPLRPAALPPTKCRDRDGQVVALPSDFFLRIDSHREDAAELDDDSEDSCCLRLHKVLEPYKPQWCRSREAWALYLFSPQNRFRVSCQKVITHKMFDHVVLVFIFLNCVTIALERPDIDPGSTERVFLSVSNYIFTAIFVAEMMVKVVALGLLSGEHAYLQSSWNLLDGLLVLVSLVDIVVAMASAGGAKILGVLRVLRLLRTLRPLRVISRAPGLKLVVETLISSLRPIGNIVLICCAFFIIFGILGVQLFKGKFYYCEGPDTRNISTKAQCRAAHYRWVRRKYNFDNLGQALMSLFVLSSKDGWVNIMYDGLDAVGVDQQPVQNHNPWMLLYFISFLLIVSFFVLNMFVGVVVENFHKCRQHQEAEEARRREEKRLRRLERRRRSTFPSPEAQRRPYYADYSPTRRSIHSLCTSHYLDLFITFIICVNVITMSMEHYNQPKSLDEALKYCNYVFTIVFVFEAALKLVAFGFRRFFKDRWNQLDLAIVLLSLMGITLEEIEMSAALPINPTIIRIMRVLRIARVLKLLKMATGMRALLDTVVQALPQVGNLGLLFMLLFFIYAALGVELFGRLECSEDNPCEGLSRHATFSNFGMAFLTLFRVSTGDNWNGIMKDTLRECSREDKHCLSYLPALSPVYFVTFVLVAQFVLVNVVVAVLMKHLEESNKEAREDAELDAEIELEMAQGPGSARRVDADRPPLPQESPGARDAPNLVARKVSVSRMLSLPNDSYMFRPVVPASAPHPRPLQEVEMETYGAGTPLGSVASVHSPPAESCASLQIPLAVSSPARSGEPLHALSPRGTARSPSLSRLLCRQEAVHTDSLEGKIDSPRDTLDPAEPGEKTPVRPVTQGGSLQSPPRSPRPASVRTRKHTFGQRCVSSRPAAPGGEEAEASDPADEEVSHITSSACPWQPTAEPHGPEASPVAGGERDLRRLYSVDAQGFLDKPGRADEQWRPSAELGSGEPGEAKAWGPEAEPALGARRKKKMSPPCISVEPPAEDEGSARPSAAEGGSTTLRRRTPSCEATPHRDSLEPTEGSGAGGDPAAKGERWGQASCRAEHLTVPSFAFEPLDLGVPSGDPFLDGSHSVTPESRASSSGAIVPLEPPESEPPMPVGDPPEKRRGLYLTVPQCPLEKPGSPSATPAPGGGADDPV

In the case of `Cn1ncc2ccc(CC(=O)Nc3ccn(Cc4ccc(F)c(F)c4)n3)cc21` [Example 224, N-[1-(3,4-Difluoro-benzyl)-1H-pyrazol-3-yl]-2-(1-methyl-1H-indazol-6-yl)-acetamide], the pIC50 was 7.68.

In the case of `O=C(Cc1ccc(C2(O)COC2)cc1)Nc1ccn(Cc2ccc(F)c(F)c2)n1` [Example 226, N-[1-(3,4-Difluoro-benzyl)-1H-pyrazol-3-yl]-2-[4-(3-hydroxy-oxetan-3-yl)-phenyl]-acetamide], the pIC50 was 7.60.

On to `CC1(C)C(=O)Nc2ccc(CC(=O)Nc3ccn(Cc4ccc(F)c(F)c4)n3)cc21` [Example 228, N-[1-(3,4-Difluoro-benzyl)-1H-pyrazol-3-yl]-2-(3,3-dimethyl-2-oxo-2,3-dihydro-1H-indol-5-yl)-acetamide], for which the pIC50 was 7.36.

On to `Cn1cnc2cc(CC(=O)Nc3ccn(Cc4ccc(F)c(F)c4)n3)ccc21` [Example 230, N-[1-(3,4-Difluoro-benzyl)-1H-pyrazol-3-yl]-2-(1-methyl-1H-benzoimidazol-5-yl)-acetamide], for which the pIC50 was 6.59.

Regarding `COC1(c2ccc(CC(=O)Nc3ccn(Cc4ccc(F)c(F)c4)n3)cc2)COC1` [Example 231, N-[1-(3,4-Difluoro-benzyl)-1H-pyrazol-3-yl]-2-[4-(3-methoxy-oxetan-3-yl)-phenyl]-acetamide], the pIC50 was 7.68.

Regarding `Cc1nc(-c2ccc(CC(=O)Nc3ccn(Cc4ccc(F)c(F)c4)n3)cc2)no1` [Example 235, N-[1-(3,4-Difluoro-benzyl)-1H-pyrazol-3-yl]-2-[4-(5-methyl-[1,2,4]oxadiazol-3-yl)-phenyl]-acetamide], the pIC50 is 7.38.

Take `O=C(Cc1ccc(-c2ncon2)cc1)Nc1ccn(Cc2ccc(F)c(F)c2)n1` [Example 236, N-[1-(3,4-Difluoro-benzyl)-1H-pyrazol-3-yl]-2-(4-[1,2,4]oxadiazol-3-yl-phenyl)-acetamide]: the pIC50 was 7.74.

Regarding `CN(C)c1ccc(CC(=O)Nc2ccn(Cc3ccc(Br)cc3)n2)cc1` [Example 239, N-[1-(4-Bromo-benzyl)-1H-pyrazol-3-yl]-2-(4-dimethylamino-phenyl)-acetamide], the pIC50 was 8.62.

Consider `O=C(Cc1ccc(OCC2COC2)cc1)Nc1ccn(Cc2ccc(F)c(F)c2)n1` [Example 242, N-[1-(3,4-Difluoro-benzyl)-1H-pyrazol-3-yl]-2-[4-(oxetan-3-ylmethoxy)-phenyl]-acetamide], for which the pIC50 is 7.41.

Regarding `CC1(COc2ccc(CC(=O)Nc3ccn(Cc4ccc(F)c(F)c4)n3)cc2)CC(F)(F)C1` [Example 243, N-[1-(3,4-Difluoro-benzyl)-1H-pyrazol-3-yl]-2-[4-(3,3-difluoro-1-methyl-cyclobutylmethoxy)-phenyl]-acetamide], the pIC50 was 7.43.

As to `O=C(Cc1ccc(OCC2CC(F)(F)C2)cc1)Nc1ccn(Cc2ccc(F)c(F)c2)n1` [Example 244, N-[1-(3,4-Difluoro-benzyl)-1H-pyrazol-3-yl]-2-[4-(3,3-difluoro-cyclobutylmethoxy)-phenyl]-acetamide], the pIC50 was 7.48.

With `O=C(Cc1ccc(OCC2(F)COC2)cc1)Nc1ccn(Cc2ccc(F)c(F)c2)n1` [Example 245, N-[1-(3,4-Difluoro-benzyl)-1H-pyrazol-3-yl]-2-[4-(3-fluoro-oxetan-3-ylmethoxy)-phenyl]-acetamide], the pIC50 was 7.52.

Turning to `N#Cc1ccc(Cn2ccc(NC(=O)Cc3ccc(C4(F)COC4)cc3)n2)nc1` [Example 246, N-[1-(5-Cyano-pyridin-2-ylmethyl)-1H-pyrazol-3-yl]-2-[4-(3-fluoro-oxetan-3-yl)-phenyl]-acetamide], the pIC50 was 6.15.

For the molecule `N#Cc1ccc(Cn2ccc(NC(=O)Cc3ccc(OC4COC4)cc3)n2)nc1` [Example 247, N-[1-(5-Cyano-pyridin-2-ylmethyl)-1H-pyrazol-3-yl]-2-[4-(oxetan-3-yloxy)-phenyl]-acetamide], the pIC50 is 5.59.

As for `N#Cc1ccc(Cn2ccc(NC(=O)Cc3ccc(OCC4(F)COC4)cc3)n2)nc1` [Example 248, N-[1-(5-Cyano-pyridin-2-ylmethyl)-1H-pyrazol-3-yl]-2-[4-(3-fluoro-oxetan-3-ylmethoxy)-phenyl]-acetamide], the pIC50 was 5.74.

For `Cn1ncc2cc(CC(=O)Nc3ccn(Cc4ccc(C#N)cn4)n3)ccc21` [Example 249, N-[1-(5-Cyano-pyridin-2-ylmethyl)-1H-pyrazol-3-yl]-2-(1-methyl-1H-indazol-5-yl)-acetamide], the pIC50 is 6.53.

For the molecule `N#Cc1ccc(Cn2ccc(NC(=O)Cc3ccc(C4(F)COC4)cc3)n2)cc1` [Example 250, N-[1-(4-Cyano-benzyl)-1H-pyrazol-3-yl]-2-[4-(3-fluoro-oxetan-3-yl)-phenyl]-acetamide], the pIC50 is 6.90.

As for `N#Cc1ccc(Cn2ccc(NC(=O)Cc3ccc(OC4COC4)cc3)n2)cc1` [Example 251, N-[1-(4-Cyano-benzyl)-1H-pyrazol-3-yl]-2-[4-(oxetan-3-yloxy)-phenyl]-acetamide], the pIC50 is 6.52.

On to `Cn1ncc2cc(CC(=O)Nc3ccn(Cc4ccc(C#N)cc4)n3)ccc21` [Example 252, N-[1-(4-Cyano-benzyl)-1H-pyrazol-3-yl]-2-(1-methyl-1H-indazol-5-yl)-acetamide], for which the pIC50 was 7.25.

As for `N#Cc1ccc(Cn2ccc(NC(=O)Cc3ccc(C4(F)COC4)cc3)n2)cc1F` [Example 253, N-[1-(4-Cyano-3-fluoro-benzyl)-1H-pyrazol-3-yl]-2-[4-(3-fluoro-oxetan-3-yl)-phenyl]-acetamide], the pIC50 was 7.24.

As for `N#Cc1ccc(Cn2ccc(NC(=O)Cc3ccc(OC4COC4)cc3)n2)cc1F` [Example 254, N-[1-(4-Cyano-3-fluoro-benzyl)-1H-pyrazol-3-yl]-2-[4-(oxetan-3-yloxy)-phenyl]-acetamide], the pIC50 was 7.00.

In the case of `Cn1ncc2cc(CC(=O)Nc3ccn(Cc4ccc(C#N)c(F)c4)n3)ccc21` [Example 255, N-[1-(4-Cyano-3-fluoro-benzyl)-1H-pyrazol-3-yl]-2-(1-methyl-1H-indazol-5-yl)-acetamide], the pIC50 is 7.28.

Consider `N#Cc1ccc(Cn2ccc(NC(=O)Cc3ccc(OCC4(F)COC4)cc3)n2)cc1` [Example 256, N-[1-(4-Cyano-benzyl)-1H-pyrazol-3-yl]-2-[4-(3-fluoro-oxetan-3-ylmethoxy)-phenyl]-acetamide], for which the pIC50 was 6.60.

In the case of `N#Cc1ccc(Cn2ccc(NC(=O)Cc3ccc(OCC4(F)COC4)cc3)n2)cc1F` [Example 257, N-[1-(4-Cyano-3-fluoro-benzyl)-1H-pyrazol-3-yl]-2-[4-(3-fluoro-oxetan-3-ylmethoxy)-phenyl]-acetamide], the pIC50 was 7.12.

Take `COC1(c2ccc(CC(=O)Nc3ccn(Cc4ccc(F)c(F)c4)n3)cn2)COC1` [Example 258, N-[1-(3,4-Difluoro-benzyl)-1H-pyrazol-3-yl]-2-[6-(3-methoxy-oxetan-3-yl)-pyridin-3-yl]-acetamide]: the pIC50 was 6.03.

Turning to `Cc1cn(C)c2cc(CC(=O)Nc3ccn(Cc4ccc(F)c(F)c4)n3)ccc12` [Example 259, N-[1-(3,4-Difluoro-benzyl)-1H-pyrazol-3-yl]-2-(1,3-dimethyl-1H-indol-6-yl)-acetamide], the negative logarithm of the IC50 (pIC50) is 8.39.

For the molecule `Cc1cn(C)c2ccc(CC(=O)Nc3ccn(Cc4ccc(F)c(F)c4)n3)cc12` [Example 260, N-[1-(3,4-Difluoro-benzyl)-1H-pyrazol-3-yl]-2-(1,3-dimethyl-1H-indol-5-yl)-acetamide], the pIC50 was 8.51.

Regarding `N#Cc1ccc(Cn2ccc(NC(=O)Cc3ccc(OC4CC(F)(F)C4)cc3)n2)cc1F` [Example 261, N-[1-(4-Cyano-3-fluoro-benzyl)-1H-pyrazol-3-yl]-2-[4-(3,3-difluoro-cyclobutoxy)-phenyl]-acetamide], the pIC50 was 7.82.

In the case of `N#Cc1ccc(Cn2ccc(NC(=O)Cc3ccc(OCC4COC4)cc3)n2)cc1F` [Example 262, N-[1-(4-Cyano-3-fluoro-benzyl)-1H-pyrazol-3-yl]-2-[4-(oxetan-3-ylmethoxy)-phenyl]-acetamide], the pIC50 was 6.81.

As for `CC1(COc2ccc(CC(=O)Nc3ccn(Cc4ccc(C#N)c(F)c4)n3)cc2)COC1` [Example 263, N-[1-(4-Cyano-3-fluoro-benzyl)-1H-pyrazol-3-yl]-2-[4-(3-methyl-oxetan-3-ylmethoxy)-phenyl]-acetamide], the pIC50 was 7.01.

For `CC(C)(C)c1ccc(CC(=O)Nc2ccn(Cc3ccc(C#N)c(F)c3)n2)cc1` [Example 264, 2-(4-tert-Butyl-phenyl)-N-[1-(4-cyano-3-fluoro-benzyl)-1H-pyrazol-3-yl]-acetamide], the pIC50 is 8.27.

Turning to `N#Cc1ccc(Cn2ccc(NC(=O)Cc3ccc(C4(C(F)(F)F)CC4)cc3)n2)cc1F` [Example 265, N-[1-(4-Cyano-3-fluoro-benzyl)-1H-pyrazol-3-yl]-2-[4-(1-trifluoromethyl-cyclopropyl)-phenyl]-acetamide], the pIC50 was 7.82.

With `CC(C)c1ccc(CC(=O)Nc2ccn(Cc3ccc(C#N)c(F)c3)n2)cc1` [Example 266, N-[1-(4-Cyano-3-fluoro-benzyl)-1H-pyrazol-3-yl]-2-(4-isopropyl-phenyl)-acetamide], the pIC50 was 8.18.

Turning to `N#Cc1cc(Cn2ccc(NC(=O)Cc3ccc(OCC4(F)COC4)cc3)n2)ccc1F` [Example 267, N-[1-(3-Cyano-4-fluoro-benzyl)-1H-pyrazol-3-yl]-2-[4-(3-fluoro-oxetan-3-ylmethoxy)-phenyl]-acetamide], the pIC50 is 7.05.

Consider `Cn1ncc2cc(CC(=O)Nc3ccn(Cc4ccc(F)c(C#N)c4)n3)ccc21` [Example 268, N-[1-(3-Cyano-4-fluoro-benzyl)-1H-pyrazol-3-yl]-2-(1-methyl-1H-indazol-5-yl)-acetamide], for which the pIC50 is 7.46.

As to `N#Cc1cc(Cn2ccc(NC(=O)Cc3ccc(OC4COC4)cc3)n2)ccc1F` [Example 269, N-[1-(3-Cyano-4-fluoro-benzyl)-1H-pyrazol-3-yl]-2-[4-(oxetan-3-yloxy)-phenyl]-acetamide], the negative-log IC50 (pIC50) is 6.79.
